Measurements taken from patent US20250092035A1, “ISOCITRATE DEHYDROGENASE 1 INHIBITORS AND METHODS OF USE THEREOF” (THE WISTAR INSTITUTE OF ANATOMY AND BIOLOGY, priority 2022, published 2025).

Experiments:
[1] = test system: murine PC models; experiment: KPC and tamoxifen-inducible KP−/−C mouse models; assay type: in vivo; settings: two difficult-to-treat murine PC models
Text: In vivo studies. […] Mice were maintained under pathogen-free conditions in the animal facility. No additional food or nutrient-contained bedding provided to the animals during these studies. […] Mice on a mixed background were bred in-house at the CRUK Beatson Institute and maintained in conventional caging with environmental enrichment, access to standard chow and water ad libitum. […] Mice were monitored 3 times weekly and when a diagnosis of pancreatic cancer was made by abdominal palpation, this was confirmed by high-resolution ultrasound imaging, using the VisualSonics Vevo 3100 preclinical imaging platform (FUJIFILM VisualSonics, Toronto, Canada). Anesthesia was induced and maintained with a mixture of isoflurane and medical air. Mice were imaged weekly to monitor tumor progression and tumor volume was assessed for each mouse and plotted longitudinally. […] Tamoxifen dissolved in corn oil at 20 mg/ml, and animals received tamoxifen (75 mg/kg, IP administration, once daily) for six consecutive days. For flank xenograft experiments, 1×10^6 cells were suspended in 200 μL of a PBS:matrigel solution (1:1) and injected subcutaneously into the right flank of mice. […] For all flank xenograft experiments, tumor volumes were measured twice per week using a caliper (volume=length×width^2/2). […] Body weights were measured once weekly for the indicated time. […]

[2] = target: T1, IDH1 protein in MiaPaCa-2 PC cells (Homo sapiens, UniProt O75874); experiment: Cellular thermal shift assay; assay type: cell-based; settings: 1 μM
T1 construct: endogenous in cells; host or cells: MiaPaCa-2 pancreatic cancer cells
Method: Cellular Thermal Shift assay. Thermal shift experiments were performed as previously described (72). Briefly, cells were cultured in media containing the indicated experimental concentrations of MgSO4 under standard conditions (25 mM glucose, 4 mM glutamine and 10% FBS) for 24 hours. […] Cells were then trypsinized, washed with PBS, suspended in PBS (containing protease inhibitors), lysed through three freeze-thaw cycles at liquid nitrogen−37° C., and then heated at the indicated temperatures for three minutes. Preparations were spun down at 13,000 rpm for 10 min at 4° C. to remove denatured proteins, and supernatants were loaded on a Western blot gel. Western blots were performed as described.

[3] = test system: Human PC cells; experiment: Clonogenic growth of human PC cells; assay type: cell-based; settings: low Mg2+ and glucose
Method: (§1) Clonogenic assay. 1000-2000 cells per well were plated in six-well plates. Media was not changed during experiments unless indicated. […] Upon completion of the experiments, colonies were fixed in a reagent containing 80% methanol and stained with 0.5% crystal violet. To determine relative growth, dye was extracted from stained colonies with 10% acetic acid and the associated absorbance measured at 600 nm using a Microplate Reader (GloMax Explorer system, Promega).

[4] = test system: MiaPaCa-2 cells; settings: PC cells
[5] = test system: MiaPaCa-2 PC cells; experiment: ROS levels (DCFDA assay); assay type: cell-based, human
Method: ROS and 8-OHdG quantification. Cells were incubated in a 96-well plate with 10 μM H2-DCFDA (Life Technology, D399) for 45 min in serum-free media to detect total intracellular ROS. For mitochondrial-specific ROS, cells were incubated with 5 μM MitoSOX Red (Life Technologies, M36008) for 30 min in serum-free media. Cells were washed with PBS, and fluorescence measured according to manufacturer instructions using a Microplate Reader (GloMax Explorer system, Promega). 8-OHdG was measured according to the manufacturer's instructions (Abcam, AB201734). Readouts were normalized to cell number.

[6] = target: IDH1 (Homo sapiens, UniProt O75874); experiment: Cell-free wtIDH1 activity (fluorometric NADPH); assay type: biochemical; set-up: purchased RD systems; settings: Mg2+ reduced to 0.1 mM
Method: IDH activity assay. Cell-based wtIDH activity is measured by quantitation of IDH-dependent NADPH synthesis (Abcam, ab 102528). The reaction measures the activity of both IDH1 and IDH2 isoenzymes. IDH1 activity is specifically measured using the same assay after transient siRNA silencing of IDH2 (Extended Data FIG. 6i). The opposite approach is used to estimate IDH2 activity. All readouts were normalized to cell number. Cell-free wtIDH1 activity was performed by a fluorometric assay measuring NADPH levels at 355/460 nm. The assay contained 0.25 nM human recombinant IDH1 (RD systems), 30 μM isocitrate, and 30 μM NADP^+ in 20 μL of 100 mM Tris-HCL, pH8, 0.2 mM DTT, 0.05% CHAPS, and MgCl2 at the indicated levels. Formation of NADPH was measured over 40 min at 5 min intervals.

[7] = test system: PC cells; experiment: Oxygen consumption rate (Seahorse); assay type: cell-based, human
Method: Cell bioenergetic assays. Oxygen consumption rates (OCR) and extracellular acidification rates (ECAR) were measured using the Seahorse XFp Extracellular Flux Analyzer (Seahorse Bioscience) according to the manufacturer's instructions. For OCR experiments, cells were cultured in 4 mM glutamine, 5% FBS, and the indicated glucose levels for 24-36 hours. Mitochondrial membrane potential was measured with TMRE staining (Invitrogen, T669) according to the manufacturer's instructions. […] NADPH (abcam, ab65349), GSH/GSSG ratio (Promega, V6611), and ATP (abcam, 83355) measurements were performed according to the manufacturer's instructions. All readouts were normalized to cell number.

[8] = test system: HCT116 cells; experiment: Clonogenic growth of colon cancer cells; assay type: cell-based, human; settings: low Mg2+ and glucose
Method: as §1

T1 sequence (O75874 2-414 limits assumed): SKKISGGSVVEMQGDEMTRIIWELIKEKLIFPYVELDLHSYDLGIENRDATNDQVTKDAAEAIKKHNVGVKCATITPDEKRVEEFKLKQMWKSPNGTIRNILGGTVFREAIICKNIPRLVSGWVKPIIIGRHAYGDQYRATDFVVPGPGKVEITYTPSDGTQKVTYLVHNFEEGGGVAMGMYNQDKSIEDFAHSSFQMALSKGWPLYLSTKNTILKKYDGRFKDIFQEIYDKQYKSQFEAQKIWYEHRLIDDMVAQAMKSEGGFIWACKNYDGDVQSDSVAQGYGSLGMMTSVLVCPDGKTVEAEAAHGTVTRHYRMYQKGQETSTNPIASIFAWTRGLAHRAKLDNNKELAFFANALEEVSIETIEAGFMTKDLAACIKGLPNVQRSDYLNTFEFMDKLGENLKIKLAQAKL
Sequence of IDH1 (O75874 whole entry): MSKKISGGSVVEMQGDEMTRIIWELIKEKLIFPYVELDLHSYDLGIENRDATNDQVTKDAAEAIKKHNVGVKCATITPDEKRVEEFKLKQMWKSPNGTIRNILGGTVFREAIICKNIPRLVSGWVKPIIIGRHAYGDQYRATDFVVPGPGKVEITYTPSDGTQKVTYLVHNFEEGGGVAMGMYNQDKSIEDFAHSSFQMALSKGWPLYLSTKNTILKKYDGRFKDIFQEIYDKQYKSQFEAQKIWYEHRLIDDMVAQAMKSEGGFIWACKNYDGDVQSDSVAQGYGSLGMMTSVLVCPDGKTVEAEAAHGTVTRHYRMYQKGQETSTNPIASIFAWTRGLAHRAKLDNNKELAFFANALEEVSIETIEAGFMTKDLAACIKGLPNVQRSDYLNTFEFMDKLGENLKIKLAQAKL

Q: For N#Cc1ccnc(N2C(=O)CC[C@H]2C(=O)N(c2cncc(F)c2)[C@H](C(=O)NC2CC(F)(F)C2)c2ccccc2Cl)c1 [AG-120, ivosidenib], which “survival and tumor volumes” value [1] is on record?
A: did not reach statistical significance

Q: What about the “thermal stabilization of IDH1” value ([2]; higher Mg2+ levels) of the same compound?
A: no effect

Q: And the “thermal stabilization of IDH1” value ([2]; low Mg2+ concentrations)?
A: stabilized the protein

Q: And the cell survival [3]?
A: markedly impaired survival

Q: What about the “combination with chemotherapeutic agents” value [4] of the same compound?
A: enhanced the efficacy of chemotherapeutic agents

Q: What about the “intracellular ROS” value ([5]; higher Mg2+ levels) of the same compound?
A: No such effect

Q: What about the “intracellular ROS” value ([5]; low Mg2+ combined with low glucose) of the same compound?
A: surge in intracellular ROS

Q: What about the “cell-free wtIDH1 activity inhibition” value [6] of the same compound?
A: highly potent

Q: And the oxygen consumption ([7]; low Mg2+ and glucose)?
A: severely impaired oxygen consumption

Q: And the oxygen consumption ([7]; standard Mg2+ and low glucose)?
A: no effect on oxygen consumption

Q: And the response in culture [8]?
A: responded to the drug
